Assay results published in patent US20020182717A1, “Method of preparing supported lipid film membranes and use thereof” (Biacore AB, priority 2001, published 2002).

Target: T1, rhodopsin (Bos taurus, UniProt P02699)
T1 construct: Gift: Dr. Andreas von Usedom, Institute for Medical Physics and Biophysics, Humboldt University, Berlin
Assay: Assay for rhodopsin functionality (transducin dissociation on illumination, SPR, BIACORE X)
Assay type: biochemical
Details: 10 μM 9-cis-retinal, after extended illumination and over night incubation
Description: In order to judge if the rhodopsin has a native and functional conformation after immobilization and supplementation with lipids as described in steps A and B above, its signaling capacity was assayed. When rhodopsin is activated by light, it transmits its signal by activating transducin. Activated transducin dissociates from the membrane under consumption of GTP (Heyse, S., et al., Biochemistry (1998) 37:507-522).
Measurements of transducin dissociation by activated rhodopsin were performed in a BIACORE X instrument into which an optical fiber had been inserted for illumination of the flow cells. The instrument temperature was set to 20° C. All the operations were performed under safe red light. […]
This solution was injected at 5 μl/min over both the rhodopsin and the reference flow cells in the manual mode. Upon injection, transducin bound readily to both the rhodopsin-POPC surface and the POPC reference surface, but when the injection was finished it dissociated very rapidly from the surface into the mobile phase of running buffer. […] The activation of the receptor was recorded as a surface mass decrease caused by dissociation of the activated transducin from the membrane. […]

T1 sequence (P02699 whole entry): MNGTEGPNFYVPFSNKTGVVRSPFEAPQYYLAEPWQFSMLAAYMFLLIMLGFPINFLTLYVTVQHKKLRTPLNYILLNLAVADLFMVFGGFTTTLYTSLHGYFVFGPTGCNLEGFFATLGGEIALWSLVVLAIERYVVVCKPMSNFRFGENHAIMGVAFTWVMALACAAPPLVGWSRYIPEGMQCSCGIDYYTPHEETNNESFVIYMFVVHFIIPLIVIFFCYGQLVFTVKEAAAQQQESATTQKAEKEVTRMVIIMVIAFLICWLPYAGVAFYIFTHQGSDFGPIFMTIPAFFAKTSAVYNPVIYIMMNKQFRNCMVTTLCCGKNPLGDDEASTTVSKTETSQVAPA

CC1=C(/C=C/C(C)=C\C=C\C(C)=C\C=O)C(C)(C)CCC1 [9-cis-retinal]
signalling capacity of exhausted reconstituted rhodopsin after ligand injection: recovery of the signalling capacity
